Drawing on ChEMBL document CHEMBL1127180, “Synthesis and mechanistic studies of a tetrazole-tethered cephalosporin-quinolone hybrid” (1993), this text covers MIC for 6 molecules.

Common to all, as to type: functional
Assay [1] concerns Staphylococcus aureus. The assay is described as follows: Tested for in vitro antibacterial activity against Staphylococcus aureus 753.
Assay [2] deals with Enterobacter cloacae. The assay is described as follows: Tested for in vitro antibacterial activity against Enterobacter cloacae P99.
Assay [3] deals with Pseudomonas aeruginosa. The experiment in a line: Tested for in vitro antibacterial activity against Pseudomonas aeruginosa 18SH.
The subject of assay [4] is Staphylococcus aureus. The assay is described as follows: Tested for in vitro antibacterial activity against Staphylococcus aureus Smith.
The subject of assay [5] is Pseudomonas aeruginosa. The experiment in a line: Tested for in vitro antibacterial activity against Pseudomonas aeruginosa 5712.
Assay [6] has as its system Klebsiella pneumoniae. The experiment in a line: Tested for in vitro antibacterial activity against Klebsiella pneumoniae A.
Assay [7] concerns Streptococcus pneumoniae. The experiment in a line: Tested for in vitro antibacterial activity against Streptococcus pneumoniae 6301.
Assay [8] deals with Proteus vulgaris. The experiment in a line: Tested for in vitro antibacterial activity against Proteus vulgaris ATCC 6380.
For assay [9], the system named is Escherichia coli. The assay is described as follows: Tested for in vitro antibacterial activity against Escherichia coli 257.
Assay [10] relates to Streptococcus pyogenes. The experiment in a line: Tested for in vitro antibacterial activity against Streptococcus pyogenes 4.
In assay [11] the test system is Citrobacter freundii. The assay is described as follows: Tested for in vitro antibacterial activity against Citrobacter freundii BS-16.
Assay [12] deals with Escherichia coli. The assay is described as follows: Tested for in vitro antibacterial activity against Escherichia coli TEM-1.
For assay [13], the system named is Staphylococcus aureus. The assay is described as follows: Tested for in vitro antibacterial activity against Staphylococcus aureus 67.
The test system of assay [14] is Escherichia coli. The assay is described as follows: Tested for in vitro antibacterial activity against Escherichia coli 257; inactive.
Assay [15] has as its system Staphylococcus aureus. The experiment in a line: Tested for in vitro antibacterial activity against Staphylococcus aureus 753; inactive.
Assay [16] has as its system Pseudomonas aeruginosa. The experiment in a line: Tested for in vitro antibacterial activity against Pseudomonas aeruginosa 5712; inactive.
Assay [17] concerns Staphylococcus aureus. The assay is described as follows: Tested for in vitro antibacterial activity against Staphylococcus aureus 67; inactive.
The test system of assay [18] is Proteus vulgaris. The assay is described as follows: Tested for in vitro antibacterial activity against Proteus vulgaris ATCC 6380; inactive.
The subject of assay [19] is Pseudomonas aeruginosa. The assay is described as follows: Tested for in vitro antibacterial activity against Pseudomonas aeruginosa 18SH; inactive.
Assay [20] deals with Escherichia coli. The assay is described as follows: Tested for in vitro antibacterial activity against Escherichia coli TEM-1; inactive.
Assay [21] has as its system Streptococcus pyogenes. The experiment in a line: Tested for in vitro antibacterial activity against Streptococcus pyogenes 4; inactive.
The subject of assay [22] is Staphylococcus aureus. The experiment in a line: Tested for in vitro antibacterial activity against Staphylococcus aureus Smith; inactive.
Assay [23] relates to Enterobacter cloacae. The experiment in a line: Tested for in vitro antibacterial activity against Enterobacter cloacae P99; inactive.
Assay [24] concerns Streptococcus pneumoniae. The assay is described as follows: Tested for in vitro antibacterial activity against Streptococcus pneumoniae 6301; inactive.
For assay [25], the system named is Citrobacter freundii. The assay is described as follows: Tested for in vitro antibacterial activity against Citrobacter freundii BS-16; inactive.
For assay [26], the system named is Klebsiella pneumoniae. The assay is described as follows: Tested for in vitro antibacterial activity against Klebsiella pneumoniae A; inactive.

In brackets after ≈: the same amount, converted by molar mass. Some results are limits rather than exact numbers.

With `O=C(O)c1cn(C2CC2)c2c(F)c(N3CCNCC3)c(F)cc2c1=O`, the MIC against Staphylococcus aureus [1] was 0.25 µg/mL (≈ 0.716 µM); against Enterobacter cloacae [2], 0.0078 µg/mL (≈ 0.0223 µM); against Pseudomonas aeruginosa [3], 0.25 µg/mL (≈ 0.716 µM); with Staphylococcus aureus [4], 0.125 µg/mL (≈ 0.358 µM); against Pseudomonas aeruginosa [5] it was 1 µg/mL (≈ 2.86 µM); with Klebsiella pneumoniae [6], 0.25 µg/mL (≈ 0.716 µM). Moreover, the MIC with Streptococcus pneumoniae [7] is 1 µg/mL (≈ 2.86 µM); in the assay on Proteus vulgaris [8] it was 0.0078 µg/mL (≈ 0.0223 µM); in the assay with Escherichia coli [9], 0.0078 µg/mL (≈ 0.0223 µM); against Streptococcus pyogenes [10], 0.5 µg/mL (≈ 1.43 µM); in the assay with Citrobacter freundii [11], 0.0313 µg/mL (≈ 0.0896 µM); against Escherichia coli [12], 0.0156 µg/mL (≈ 0.0447 µM). The MIC in the assay with Staphylococcus aureus [13] stood at 0.5 µg/mL (≈ 1.43 µM).
For the molecule `CO/N=C(/C(=O)NC1C(=O)N2C(C(=O)[O-])=C(CSc3nnnn3CC(=O)N3CCN(c4cc5c(cc4F)c(=O)c(C(=O)O)cn5C4CC4)CC3)CS[C@H]12)c1csc(N)n1.[Na+]` (stereo partly drawn), the MIC is 128 µg/mL in the assay on Staphylococcus aureus [1]; 16 µg/mL in the assay on Enterobacter cloacae [2]; 128 µg/mL against Pseudomonas aeruginosa [3]; 4 µg/mL with Staphylococcus aureus [4]; > 128 µg/mL against Pseudomonas aeruginosa [5]; 2 µg/mL in the assay with Klebsiella pneumoniae [6]. Moreover, the MIC was ≤ 0.0156 µg/mL in the assay on Streptococcus pneumoniae [7]; 4 µg/mL in the assay with Proteus vulgaris [8]; 4 µg/mL against Escherichia coli [9]; ≤ 0.0156 µg/mL with Streptococcus pyogenes [10]; 32 µg/mL with Citrobacter freundii [11]; 2 µg/mL with Escherichia coli [12]. This molecule returned an MIC in the assay with Staphylococcus aureus [13] of 64 µg/mL.
Turning to `O=C(O)c1cn(C2CC2)c2cc(N3CCN(C(=O)Cn4nnnc4S)CC3)c(F)cc2c1=O`, the MIC in the assay on Staphylococcus aureus [1] stood at 64 µg/mL (≈ 135 µM); in the assay with Enterobacter cloacae [2], 2 µg/mL (≈ 4.22 µM); against Pseudomonas aeruginosa [3], 32 µg/mL (≈ 67.6 µM); with Staphylococcus aureus [4] it was 32 µg/mL (≈ 67.6 µM); in the assay on Pseudomonas aeruginosa [5], 128 µg/mL (≈ 270 µM); with Klebsiella pneumoniae [6], 32 µg/mL (≈ 67.6 µM). Also, the MIC against Streptococcus pneumoniae [7] worked out at 64 µg/mL (≈ 135 µM); in the assay with Proteus vulgaris [8] it was 4 µg/mL (≈ 8.45 µM); with Escherichia coli [9] it was 2 µg/mL (≈ 4.22 µM); against Streptococcus pyogenes [10], 64 µg/mL (≈ 135 µM); in the assay on Citrobacter freundii [11], 4 µg/mL (≈ 8.45 µM); with Escherichia coli [12], 2 µg/mL (≈ 4.22 µM). Moreover, the MIC with Staphylococcus aureus [13] was 64 µg/mL (≈ 135 µM).
Regarding `CO/N=C(/C(=O)NC1C(=O)N2C(C(=O)[O-])=C(CO)CS[C@H]12)c1csc(N)n1.[Na+]` (stereo partly drawn), the minimal inhibitory concentration (MIC) in the assay on Staphylococcus aureus [1] is > 128 µg/mL; in the assay with Enterobacter cloacae [2], > 128 µg/mL; with Pseudomonas aeruginosa [3], > 128 µg/mL; against Staphylococcus aureus [4], 16 µg/mL; against Pseudomonas aeruginosa [5] it was > 128 µg/mL; with Klebsiella pneumoniae [6] it was 0.0625 µg/mL. In addition, the MIC was 0.0625 µg/mL with Streptococcus pneumoniae [7]; 0.0625 µg/mL against Proteus vulgaris [8]; 0.25 µg/mL against Escherichia coli [9]; ≤ 0.0157 µg/mL in the assay with Streptococcus pyogenes [10]; > 128 µg/mL with Citrobacter freundii [11]; 0.25 µg/mL in the assay on Escherichia coli [12]. The MIC in the assay on Staphylococcus aureus [13] was > 128 µg/mL.
Consider `CO/N=C(/C(=O)NC1C(=O)N2C(C(=O)[O-])=C(CSc3nnnn3CC(=O)O)CS[C@H]12)c1csc(N)n1.[Na+]` (stereo partly drawn), for which the minimal inhibitory concentration (MIC) against Staphylococcus aureus [1] was > 128 µg/mL; against Enterobacter cloacae [2], > 128 µg/mL; with Pseudomonas aeruginosa [3] it was > 128 µg/mL; in the assay with Staphylococcus aureus [4], 8 µg/mL; with Pseudomonas aeruginosa [5], 16 µg/mL; against Klebsiella pneumoniae [6] it was 0.0625 µg/mL. Besides, the MIC is 0.0313 µg/mL in the assay with Streptococcus pneumoniae [7]; ≤ 0.0156 µg/mL in the assay on Proteus vulgaris [8]; 0.125 µg/mL in the assay on Escherichia coli [9]; 0.0313 µg/mL with Streptococcus pyogenes [10]; 128 µg/mL in the assay with Citrobacter freundii [11]; 0.125 µg/mL in the assay on Escherichia coli [12]. In addition, the MIC against Staphylococcus aureus [13] was > 128 µg/mL.
On to `O=C([O-])Cn1nnnc1[S-].[Na+].[Na+]`, for which the MIC against Escherichia coli [14], with Staphylococcus aureus [15], against Pseudomonas aeruginosa [16], against Staphylococcus aureus [17], in the assay on Proteus vulgaris [18] and in the assay with Pseudomonas aeruginosa [19] was > 128 µg/mL throughout. Further, the MIC with Escherichia coli [20], with Streptococcus pyogenes [21], in the assay on Staphylococcus aureus [22], in the assay with Enterobacter cloacae [23], in the assay with Streptococcus pneumoniae [24] and with Citrobacter freundii [25] was > 128 µg/mL throughout. The MIC against Klebsiella pneumoniae [26] is > 128 µg/mL.
